Measured values taken from patent US6087355A, “Cephalosporin antibiotics” (Microcide Pharmaceuticals, Inc., priority 1996, dated 2000).
Converted amounts (≈) assume the structure as drawn.

Columns and labels:
Experiment in all cases: In vitro MIC, agar dilution
Format in all cases: cell-based
[1] = test system: S. aureus ATCC 13709(Meth^S); conditions: Staphylococcus aureus, ATCC13709, S. aureus ATCC 13709(Meth^S); read-out: minimum inhibitory concentration (MIC)
Procedure, shortened: (§1)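 Two-fold dilutions of compound (highest working concentration 128 μg/mL, down to ≤0.25 μg/mL, in duplicate) were set into Mueller-Hinton agar. Plates were spot-inoculated at about 10^4 cfu per spot from log-phase cultures and incubated 16-20 hours at 35-36° C. MIC is the lowest concentration inhibiting growth.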

P. aeruginosa ATCC 27853 = conditions: Pseudomonas aeruginosa, ATCC27853, read-out: minimum inhibitory concentration (MIC)
Procedure, shortened: as §1

E. faecalis VanB(Van^R) = conditions: Enterococcus faecalis, read-out: minimum inhibitory concentration (MIC)
Procedure, shortened: as §1

[2] = test system: S. haemolyticus 05(Meth^R); conditions: Staphylococcus haemolyticus, read-out: minimum inhibitory concentration (MIC)
Procedure, shortened: as §1

S. aureus ATCC 29213 = conditions: Staphylococcus aureus, ATCC29213, read-out: minimum inhibitory concentration (MIC)
Procedure, shortened: as §1

[3] = test system: S. aureus Col(Meth^R)(lac^-); conditions: Staphylococcus aureus, read-out: minimum inhibitory concentration (MIC)
Procedure, shortened: (§2)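 Two-fold dilutions (128 to ≤0.25 μg/mL, in duplicate) were poured into Mueller-Hinton agar. Log-phase broth cultures were spot-inoculated at about 10^4 cfu per spot and incubated 35-36°C for 16-20 hours; the MIC was the lowest concentration inhibiting growth. Col is a high-level PBP2a producer; Col 8A is its isogenic PBP2a-lacking partner.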

[4] = test system: S. aureus Col8A(Meth^S)(lac^-); conditions: Staphylococcus aureus; S. aureus Col8A(Meth^S)(lac^-); read-out: minimum inhibitory concentration (MIC)
Procedure, shortened: as §2

## C[C@@H](O)[C@H]1C(=O)N2C(C(=O)O)=C(SCCN=CN)C[C@H]12 [Imipenem, imipenem, reference compound]
[1]
  MIC: ≤ 0.25 µg/mL
P. aeruginosa ATCC 27853
  MIC: 1 µg/mL (≈ 3.34 µM)
E. faecalis VanB(Van^R)
  MIC: 0.5 µg/mL (≈ 1.67 µM)
[2]
  MIC: 64 µg/mL (≈ 214 µM)
S. aureus ATCC 29213
  MIC: ≤ 0.25 µg/mL
[3]
  MIC: 32 µg/mL (≈ 107 µM)
[4]
  MIC: ≤ 0.25 µg/mL
